ChEMBL document CHEMBL1145114, “The combi-targeting concept: chemical dissection of the dual targeting properties of a series of "combi-triazenes"” (J Med Chem, 2003)

Assays:
NIH3T3 [1] = experiment: cells; settings: Mus musculus
Description: Selective inhibition of serum stimulated growth of NIH3T3neu isogenic cells

A-431 = experiment: In vitro inhibition of A431 (human carcinoma) cell basal growth.; assay type: functional, cell-based
NIH3T3 [2] = experiment: cells; settings: Mus musculus; remark: listed apart in the source
Description: Selective inhibition of serum stimulated growth of NIH3T3 isogenic cells

[3] = biological target: Epidermal growth factor receptor (Homo sapiens, UniProt P00533); experiment: In vitro inhibition of Epidermal growth factor receptor tyrosine kinase isolated from A431 (human carcinoma).
Chain of Epidermal growth factor receptor (P00533 whole entry): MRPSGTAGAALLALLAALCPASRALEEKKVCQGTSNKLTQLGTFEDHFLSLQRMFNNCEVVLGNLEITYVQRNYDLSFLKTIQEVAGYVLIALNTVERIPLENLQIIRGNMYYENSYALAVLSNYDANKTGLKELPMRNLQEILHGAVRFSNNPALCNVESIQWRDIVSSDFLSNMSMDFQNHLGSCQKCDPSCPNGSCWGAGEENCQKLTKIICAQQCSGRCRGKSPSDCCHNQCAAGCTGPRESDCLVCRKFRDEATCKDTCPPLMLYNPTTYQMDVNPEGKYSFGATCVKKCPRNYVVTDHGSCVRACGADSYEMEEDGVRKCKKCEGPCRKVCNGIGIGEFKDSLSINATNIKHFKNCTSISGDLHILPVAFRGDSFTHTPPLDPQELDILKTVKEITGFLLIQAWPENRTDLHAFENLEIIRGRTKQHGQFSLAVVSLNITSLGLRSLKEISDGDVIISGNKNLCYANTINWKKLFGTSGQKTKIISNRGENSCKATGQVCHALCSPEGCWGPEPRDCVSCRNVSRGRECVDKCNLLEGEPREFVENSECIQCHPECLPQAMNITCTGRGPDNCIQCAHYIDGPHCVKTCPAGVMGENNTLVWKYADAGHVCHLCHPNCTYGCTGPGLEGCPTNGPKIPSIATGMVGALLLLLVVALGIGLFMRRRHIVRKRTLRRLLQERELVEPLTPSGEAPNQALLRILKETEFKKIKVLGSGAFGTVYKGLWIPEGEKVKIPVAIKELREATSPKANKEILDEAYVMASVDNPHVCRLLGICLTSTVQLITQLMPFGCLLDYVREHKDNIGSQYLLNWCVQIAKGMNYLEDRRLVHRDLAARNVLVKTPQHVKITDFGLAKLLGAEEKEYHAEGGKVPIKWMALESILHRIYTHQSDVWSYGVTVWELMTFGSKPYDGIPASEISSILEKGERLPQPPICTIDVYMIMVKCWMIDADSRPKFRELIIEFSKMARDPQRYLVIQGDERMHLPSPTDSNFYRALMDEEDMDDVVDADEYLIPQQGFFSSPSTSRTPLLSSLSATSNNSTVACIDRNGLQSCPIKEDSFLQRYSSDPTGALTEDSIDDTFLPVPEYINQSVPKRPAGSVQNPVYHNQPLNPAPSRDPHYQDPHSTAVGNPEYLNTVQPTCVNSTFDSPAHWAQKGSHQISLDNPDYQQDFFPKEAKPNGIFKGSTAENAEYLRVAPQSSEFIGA

Structure (SMILES)	IC50 (A-431)	IC50 [3]	IC50 (NIH3T3 [1])	IC50 (NIH3T3 [2])
Brc1cccc(Nc2ncnc3ccc(N/N=N/CCN4CCOCC4)cc23)c1	33 µM	0.064 µM	2.92 µM	22.2 µM
CN(C)/N=N/c1ccc2ncnc(Nc3cccc(Br)c3)c2c1	100 µM	0.011 µM	3.74 µM	52.5 µM
Cc1cccc(Nc2ncnc3ccc(N)cc23)c1	65 µM	–	7.2 µM	90 µM
CN(C)CCN=NNc1ccc2ncnc(Nc3cccc(Br)c3)c2c1	12.4 µM	0.038 µM	3.4 µM	16.7 µM
Brc1cccc(Nc2ncnc3ccc(NN=NCc4ccccc4)cc23)c1	20 µM	0.025 µM	11.2 µM	60.2 µM
CN=NNc1ccc2ncnc(NCc3ccccc3)c2c1	20 µM	0.335 µM	34.9 µM	50.3 µM
C/N=N/Nc1ccc2ncnc(Nc3cccc(Cl)c3)c2c1	16.7 µM	–	4.16 µM	32.1 µM
Nc1ccc2ncnc(Nc3cccc(Br)c3)c2c1	45 µM	–	4.1 µM	52.9 µM
Nc1ccc2ncnc(NCc3ccccc3)c2c1	25 µM	0.508 µM	33.8 µM	96.7 µM
Cc1cccc(Nc2ncnc3ccc(/N=N/N(C)C)cc23)c1	94 µM	0.024 µM	6.94 µM	50.8 µM
Brc1cccc(Nc2ncnc3ccc(NN=NCc4ccccn4)cc23)c1	11.4 µM	0.238 µM	4.06 µM	30.6 µM

More lines, in order of falling IC50 (A-431), values ahead:

IC50 (A-431)	IC50 [3]	Structure (SMILES)	IC50 (NIH3T3 [1])	IC50 (NIH3T3 [2])
116 µM	8.4 µM	CN(c1ccccc1)c1ncnc2ccc(N)cc12	99.4 µM	71.4 µM
100 µM	0.014 µM	CN(C)/N=N/c1ccc2ncnc(Nc3cccc(Cl)c3)c2c1	3.09 µM	60.4 µM
89.5 µM	8 µM	CN=NNc1ccc2ncnc(N(C)c3ccccc3)c2c1	81 µM	30.5 µM
50.3 µM	0.482 µM	CN(C)/N=N/c1ccc2ncnc(NCc3ccccc3)c2c1	33.9 µM	67.3 µM
40 µM	–	COCC/N=N/Nc1ccc2ncnc(Nc3cccc(Br)c3)c2c1	2.98 µM	42.9 µM
29.8 µM	13.3 µM	CN(C)/N=N/c1ccc2ncnc(N(C)c3ccccc3)c2c1	31.6 µM	47 µM
25.1 µM	9.3 µM	CN(c1ccccc1)c1ncnc2ccc(NN=NCc3ccccn3)cc12	64.1 µM	39.4 µM
23.2 µM	–	C/N=N/Nc1ccc2ncnc(Nc3cccc(C)c3)c2c1	9.69 µM	68.3 µM
16 µM	–	C/N=N/Nc1ccc2ncnc(Nc3cccc(Br)c3)c2c1	4.32 µM	33 µM
